Experimental data taken from PMC5431342, “Discovery of an enzyme and substrate selective inhibitor of ADAM10 using an exosite-binding glycosylated substrate” (Scientific Reports, 2016).
Read-outs that look alike come from different tables or passages of the source.

Tests used:
[1] = molecular target: T1, ADAM10 (Homo sapiens, UniProt O14672); experiment: Dual inhibition studies of ADAM10 with AHA and CID 3117694; type: biochemical
T1 construct: purchased R&D Systems 936-AD
T1 sequence (O14672 214-748): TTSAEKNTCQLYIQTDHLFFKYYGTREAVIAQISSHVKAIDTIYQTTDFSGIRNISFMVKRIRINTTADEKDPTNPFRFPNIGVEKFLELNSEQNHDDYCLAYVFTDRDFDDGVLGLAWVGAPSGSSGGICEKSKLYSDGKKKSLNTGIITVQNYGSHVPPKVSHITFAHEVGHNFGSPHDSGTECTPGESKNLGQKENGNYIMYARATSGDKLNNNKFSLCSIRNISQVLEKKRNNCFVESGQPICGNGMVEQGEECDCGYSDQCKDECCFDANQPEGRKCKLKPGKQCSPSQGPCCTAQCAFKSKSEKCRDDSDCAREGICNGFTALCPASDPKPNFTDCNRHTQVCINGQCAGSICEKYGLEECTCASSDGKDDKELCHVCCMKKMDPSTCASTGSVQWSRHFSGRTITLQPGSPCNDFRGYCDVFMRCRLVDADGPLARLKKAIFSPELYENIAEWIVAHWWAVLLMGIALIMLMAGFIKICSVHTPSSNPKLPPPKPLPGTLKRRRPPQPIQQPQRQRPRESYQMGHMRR
Experimental: 5 µL of 4X ADAM10 solution ([…]) were added to solid bottom black 384 low volume plates (Nunc, cat# 264705). […] 5 µL of 4X CID 3117694 were added to the wells containing AHA such that the final assay concentrations of CID 3117694 were 0.275, 0.55, 1.1, 2.2, and 4.4 µM. Enzyme-inhibitor mixtures were incubated for 1 h at RT after which 5 µL of 4X glycosylated substrate was added to all wells. Reactions were incubated at RT for 2 h, after which the fluorescence was measured using the Synergy H4 multimode microplate reader (λexcitation = 360 nm, λemission = 460 nm). IC50 values were calculated by fitting normalized data to sigmoidal log vs. response equation utilizing non-linear regression analysis from GraphPad Prizm 6.
Multi-drug combination dose-effect analysis using Compusyn software (ComboSyn, Inc. 599 Mill Run, Paramus, NJ, 07653, USA) was utilized to determine whether inhibitor combinations produced synergy, antagonism, or no effect as compared to a single inhibitor. Combination Index values were obtained using Combination Index (CI) Equation of Chou-Talalay[56] in Compusyn software (ComboSyn, Inc. 599 Mill Run, Paramus, NJ, 07653, USA) and a normalized isobologram was constructed: (D)1/(Dx)1+(D)2/(Dx)2=CI
In the denominators, (Dx)1 is the doses of Drug1 alone that inhibits x% while (Dx)2 is the dose of Drug2 alone that inhibits x%. […] Effect was determined according to the Table 1 (from ref. [57]).

[2] = molecular target: T1, ADAM10; experiment: ADAM10 glycosylated substrate uHTS/HTS assay; type: biochemical
Experimental: To enable uHTS both ADAM10 and ADAM17 glycosylated substrate[13] (Fig. 1A) assays were miniaturized to 1536 well plate format. The workflow of the assays in 384 well plate format was recaptured in 1536 well plate format and assay volume was scaled down to 5 µL.
Both assays followed the same general protocol. […] Reactions were incubated at RT for 2 h, after which the fluorescence was measured using Perkin Elmer Viewlux multimode microplate imager (λexcitation = 360 nm, λemission = 460 nm). Final concentration of test compounds in assays was 7.0 µM.
(§1) The miniaturized 1536-well plate format ADAM10 and ADAM17 assays were used to screen a collection of ≈370,000 compounds (MLSMR library, provided by the NIH) on the automated Kalypsys/GNF platform at the Scripps Research Institute Molecular Screening Center (SRIMSC, Jupiter, FL. More details at http://hts.florida.scripps.edu/). […] Both uHTS campaigns were run separately but in a similar manner. Briefly, the first step was the primary screen of all MLSMR’s test compounds as singlicate against the ADAM10 or ADAM17 target at a final concentration of 7.0 μM. Next, compounds selected as primary hits were cherry-picked and retested in triplicate against the primary screen target and its anti-target (ADAM17 for the ADAM10 screening effort, and vice-versa) at the same final concentration of 7.0 μM. […] All data generated during this effort were uploaded to the SRIMSC’s institutional screening database (Assay Explorer, Symyx). Sample to background (S/B) ratios, as well as Z and Z′ values were calculated on a per-plate basis as described before. Curve fitting and resulting IC50 determinations were performed as previously reported.

[3] = molecular target: T2, ADAM17 (Homo sapiens, UniProt P78536); experiment: ADAM17 glycosylated substrate uHTS/HTS assay; type: biochemical; conditions: for IC50: original uHTS dose response, 10-point 1:3 dilutions starting at 70 µM
T2 construct: purchased R&D Systems 930-ADB
Experimental: Both assays followed the same general protocol. […] After 30 min incubation at RT, the reactions were started by addition of 2.5 µL of 2x solutions of glycosylated substrate (20 µM). Reactions were incubated at RT for 2 h, after which the fluorescence was measured using Perkin Elmer Viewlux multimode microplate imager (λexcitation = 360 nm, λemission = 460 nm). Final concentration of test compounds in assays was 7.0 µM.
as §1

[4] = system: shedding of CXCL16 in A549 cells; experiment: CXCL16 shedding inhibition (ELISA); type: cell-based, human; conditions: TNF/IFN stimulation 24 h
Experimental: (§2) A549 cells were seeded in 12-well plates and grown to confluency in DMEM supplemented with 10% FBS and 1% P/S. Subsequently, cells were starved serum-free for 4 h, incubated for 1 h with GI 254023X or CID 3117694 (concentrations as indicated) or DMSO (vehicle, 0.1%) and afterwards stimulated with 10 ng/mL TNF and 10 ng/mL IFN for 24 h or left untreated in the presence of inhibitors or DMSO. Supernatants (500 µL) were harvested and centrifuged for 10 min at 16100 g and 4 °C. […] of CXCL16 were measured using the DuoSet human CXCL16 Elisa Kit (R&D systems, Wiesbaden, Germany). Samples were stored at −80 °C and diluted 2-fold after careful thawing. The standard ranged from 0 to 25,000 pg/mL with a detection limit of 391 pg/mL. For detection of soluble syndecan-4, conditioned media (200 µL) were 2-fold diluted in blotting buffer (0.15 M NaCl buffered to pH 4.5 with 50 mM sodium acetate, and with 0.1% Triton X-100), and applied to cationic polyvinylidene difluoride-based membranes (Hybond-N, Amersham Biosciences, Freiburg, Germany) under vacuum in a dot blot apparatus (Amersham Biosciences). The membranes were blocked for 1 h with PBS-T supplemented with 1% bovine serum albumin and 3% milk powder. Human syndecan-4 was detected by incubating membranes overnight at 4 °C with mouse anti-syndecan-4 mAb (0.6 µg/mL) followed by incubation with POD-coupled goat anti-mouse Ab (27 ng/mL in PBS, Jackson Immunoresearch). Chemiluminescence was recorded and quantified using the luminescent image analyzer LAS3000 substrate after addition of ECL advanced substrate (Amersham Biosciences).

[5] = system: syndecan-4 shedding in A549 cells; experiment: Syndecan-4 shedding inhibition (dot blot); type: cell-based, human; conditions: TNF/IFN 24 h
Experimental: as §2, with “For detection of soluble syndecan-4, conditioned media (200 µL) were 2-fold diluted in blotting buffer (0.15 M NaCl buffered to pH 4.5 with 50 mM sodium acetate, and with 0.1% Triton X-100), and applied to cationic polyvinylidene difluoride-based membranes (Hybond-N, Amersham Biosciences, Freiburg, Germany) under vacuum in a dot blot apparatus (Amersham Biosciences). The membranes were blocked for 1 h with PBS-T supplemented with 1% bovine serum albumin and 3% milk powder.” left out

[6] = system: CCL2-induced migration of peripheral blood mononuclear cells (PBMC); experiment: PBMC migration assay; type: cell-based
Experimental: (§3) For PBMC or primary human neutrophil chemotaxis assays, transwells with 8 or 5 µm pores were filled with 100 µL of cell suspension (1 × 10^6 cells in 100 µL DMEM + 0.2% BSA). Lower wells were filled with stimulus solution (3 nM CCL2 or 10 µg/mL CXCL8 (IL8) in assay buffer (RPMI + 0.2% BSA). After incubation of PBMCs for 2 h or neutrophils for 45 min, migrated cells were quantified in the lower well. For inhibitor studies, cells were pre-incubated in migration medium for 30 min and subsequently subjected to the migration experiment. Migrated neutrophils or PBMCs were quantified by measurement of endogenous glucuronidase activity as described.

[7] = system: IL-8-induced migration of primary human neutrophils; experiment: Neutrophil migration assay; type: cell-based
Experimental: as §3

[8] = molecular target: T1, ADAM10; conditions: cited from earlier work
[9] = molecular target: T2, ADAM17; conditions: cited from earlier work
[10] = molecular target: T1, ADAM10; experiment: ADAM10 non-glycosylated substrate assay; type: biochemical; conditions: ADAM10
From the text: Additionally, we synthesized a non-glycosylated version, E(Edans)-[…]-K(Dabcyl), to be used as a control in the follow-up studies.

[11] = original uHTS dose response, 10-point 1:3 dilutions starting at 70 µM

T2 sequence (P78536 215-824): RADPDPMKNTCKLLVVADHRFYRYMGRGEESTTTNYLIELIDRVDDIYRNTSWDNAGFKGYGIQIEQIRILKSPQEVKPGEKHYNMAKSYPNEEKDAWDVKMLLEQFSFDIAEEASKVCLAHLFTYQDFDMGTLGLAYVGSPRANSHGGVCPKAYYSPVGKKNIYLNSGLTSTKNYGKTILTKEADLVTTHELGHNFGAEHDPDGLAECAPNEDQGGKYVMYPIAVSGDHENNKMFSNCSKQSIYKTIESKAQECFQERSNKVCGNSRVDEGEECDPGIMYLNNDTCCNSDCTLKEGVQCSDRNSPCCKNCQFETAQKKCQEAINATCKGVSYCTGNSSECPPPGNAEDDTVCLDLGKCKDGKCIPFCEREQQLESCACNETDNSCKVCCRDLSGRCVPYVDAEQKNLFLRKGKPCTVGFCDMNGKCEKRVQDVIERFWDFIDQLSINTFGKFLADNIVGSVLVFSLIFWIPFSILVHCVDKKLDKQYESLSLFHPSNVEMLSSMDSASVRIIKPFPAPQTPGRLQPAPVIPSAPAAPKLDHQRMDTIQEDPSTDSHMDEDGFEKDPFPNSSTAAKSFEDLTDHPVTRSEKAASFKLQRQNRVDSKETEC

Molecule: CC(=O)NO [AHA, acetohydroxamic acid]
- IC50 ([1]; AHA alone, read-out: AHA IC50, ADAM10-mediated hydrolysis of glycosylated substrate): 1000 ± 50 µM
- improvement in potency versus AHA alone ([1]; in the presence of 1.1 µM CID 31176944): 10 fold
- improvement in potency versus AHA alone ([1]; in the presence of 4.4 µM CID 31176944): 100 fold

Molecule: O=C1NC(=O)C(Cc2ccc(Cl)cc2)(c2ccccc2)N1 (stereo not shown) [CID 236330]
- IC50 [2, 11]: 32 µM
- IC50 [3]: 3.2 µM

Molecule: O=C(O)CCC(=O)c1c[nH]c2ccccc12 [CID 730037]
- IC50 [2, 11]: > 70 µM
- activity against ADAM17 of reordered powder versus original testing ([3]; reordered powder, 10-point 1:3 dilutions starting at 100 µM): significantly lower activity

Molecule: CCOc1ccc(NC(=O)CC2SC(=O)N(c3ccccc3)C2=O)cc1 (stereo not shown) [CID 3153587]
- IC50 [2, 11]: > 70 µM
- IC50 [3]: 7.8 µM

Molecule: CNC(=O)[C@@H](NC(=O)[C@H](CCCc1ccccc1)[C@H](C)N(O)C=O)C(C)(C)C [GI 254023X, reference compound]
- inhibition of cytokine-inducible shedding of CXCL16 [4]: inhibited shedding
- inhibition of syndecan-4 shedding [5]: inhibited shedding
- inhibition of PBMC migration [6]: completely inhibited migration
- inhibition of neutrophil migration [7]: completely inhibited migration
- IC50 [8]: 0.0053 µM
- IC50 [9]: 0.541 µM

Molecule: O=C(NO)[C@H]1C[C@H](OC(=O)N2CCCC2)CC[C@@H]1C(=O)N1CCC(c2ccccc2)CC1 [INCB8765]
- IC50 [8]: 0.097 µM
- IC50 [9]: 2.04 µM

Molecule: CNC(=O)[C@@H](NC(=O)[C@H](CC(C)C)[C@H](O)C(=O)NO)C(C)(C)C [marimastat, reference compound]
- IC50 ([2]; 384 well plate format): 0.033 µM
- IC50 ([2]; 1536 well plate format): 0.02 µM
- potency for hydrolysis of glycosylated versus non-glycosylated substrate [10]: same potency

B1: ADAM10 prodomain: Biozyme Inc.; competitive inhibitor of ADAM10 (protein)
chain: NPLNKYIRHYEGLSYNVDSLHQKHQRAKRAVSHEDQFLLLDFHAHGRQFNLRMKRDTSLFSDEFKVETSNKVLDYDTSHIYTGHIYGEEGSFSHGSVIDGRFEGFIKTRGGTFYIEPAERYIKDRILPFHSVIYHEDDINYPHKYGPQGGCADHSVFERMRKYQMTGVEEGARAHPEKHAASSGPELLRKK
modifications: tag omitted
- IC50 [8]: 0.048 µM
- IC50 [9]: > 10 µM
